Measurements as given in paper PMC12040169 (PLOS Biology, 2025).

Test: in vitro
Conditions: human, hela cells
[1] = % viability, bulk resorufin, single well

Cc1nn(C)cc1CN1CCCC(c2cc3ccccc3cn2)C1 (centres unmarked) [CBK285041]
viability at 28.5 h, 10 µM (% viability): 108%

O=C(O)c1cccc(-c2ccc(/C=C\c3nc(O)c([N+](=O)[O-])c(=O)[nH]3)o2)c1 [CBK267209]
viability at 28.5 h, 10 µM (% viability): 96.9%

NC1=NNC2=C(c3cccc(Cl)c3)NNN12 [CBK093661]
viability at 28.5 h, 10 µM (% viability): 87.3%

CCNC(=O)N1Cc2nc[nH]c2C[C@H]1C(=O)NCc1ccc(OC)cc1 [CBK288973]
viability at 28.5 h, 10 µM (% viability): 115%

COc1ccc2c(c1)C1(CC(=O)N(C)C1=O)C(=O)N2CCCC(=O)O (centres unmarked) [CBK076109]
viability at 28.5 h, 10 µM (% viability): 77.3%

COc1ccc2c(c1)C1(CC(=O)N(Cc3cccnc3)C1=O)C(=O)N2C (centres unmarked) [CBK075236]
viability at 28.5 h, 10 µM (% viability): 103%

CCCn1c(C)cc(-c2csc(NC(=O)CCn3c(-c4cccs4)n[nH]c3=S)n2)c1C [CBK295326]
viability at 28.5 h, 10 µM (% viability): 90.8%

Cc1nccn1CC(=O)N1CCCC1(C)C(=O)NC1CCCC1 (centres unmarked) [CBK281539]
viability at 28.5 h, 10 µM (% viability): 98.7%

O=C(O)CCSCC(=O)c1ccc(OC(F)F)cc1 [CBK286991]
viability at 28.5 h, 10 µM (% viability): 84.6%

Cc1c(CN2CCC(CO)C2)cnn1Cc1ccccc1 (centres unmarked) [CBK282113]
viability at 28.5 h, 10 µM (% viability): 99.5%

COCc1cccc(-c2nccnc2OC2CCCCC2)c1 [CBK106959]
viability at 28.5 h, 10 µM (% viability): 87.5%

O=C(Nc1ccccc1Br)N1CCC2(CC1)OCCO2 [CBK043644]
viability at 28.5 h, 10 µM [1]: 90.7%

O=C(O)c1ccc(CSc2nnc(-c3ccccc3)n2Cc2ccccc2)cc1 [CBK265013]
viability at 28.5 h, 10 µM (% viability): 114%

O=C(O)CCCc1[nH]nc(O)c1Cc1c(Cl)cccc1Cl [CBK081137]
viability at 28.5 h, 10 µM (% viability): 105%

C[N+]1(c2ccccc2)CCC(N)=N1 (centres unmarked) [CBK262213I]
viability at 28.5 h, 10 µM (% viability): 91.8%

Cn1ccnc1CN1C(=O)CO[C@H]2CN(c3ncccn3)C[C@H]21 [CBK289704]
viability at 28.5 h, 10 µM (% viability): 98.3%

Cc1cc(C)cc(Cn2cc(NCc3ccccc3)c(=O)[nH]c2=O)c1 [CBK288009]
viability at 28.5 h, 10 µM (% viability): 106%

CC(=O)Cn1c(CN2CCOCC2)nc2c1c(=O)n(C)c(=O)n2C [CBK269508]
viability at 28.5 h, 10 µM (% viability): 97.5%

CC(=O)Nc1ccc(S(=O)(=O)Nc2cccc(-c3cn4cccnc4n3)c2)cc1 [CBK269125]
viability at 28.5 h, 10 µM (% viability): 74.9%

COc1ccc(-c2cnc(N)c(NCC(C)(C)CO)n2)c(OC)c1OC [CBK063542]
viability at 28.5 h, 10 µM (% viability): 103%

COc1cc(NC(=O)C2CCCN2)ccc1-n1cccc1 (centres unmarked) [CBK282500]
viability at 28.5 h, 10 µM (% viability): 85.4%

COc1ccc(Nc2ccc(-c3cccc(N(C)C)c3)cn2)cn1 [CBK037588]
viability at 28.5 h, 10 µM (% viability): 95.5%

O=C(NC1CCCCC1)O[C@@H]1CO[C@H]2[C@@H]1OC[C@@H]2Nc1nccc(-c2cccs2)n1 [CBK289514]
viability at 28.5 h, 10 µM (% viability): 87.4%

Cc1cc(CCCC(=O)NCc2ccc(-c3ccc(C(N)=O)c(C)n3)cc2)ccc1F [CBK286016]
viability at 28.5 h, 10 µM (% viability): 90.3%

COc1cccc2sc(NC(=O)c3ccc4occc4c3)nc12 [CBK149278]
viability at 28.5 h, 10 µM (% viability): 96.8%

Cn1nc2n(C)c(=O)c3ccc(C(=O)NC4CCCC4)cc3n2c1=O [CBK287811]
viability at 28.5 h, 10 µM (% viability): 113%

COCCNC(=O)c1cc2n(n1)C(C(F)(F)F)CC(c1ccccc1)N2 (centres unmarked) [CBK307610]
viability at 28.5 h, 10 µM (% viability): 114%

CC(Sc1nc2c(N)ncnc2[nH]1)C(=O)O (centres unmarked) [CBK261814]
viability at 28.5 h, 10 µM (% viability): 106%

C=Cn1ncc(CN2CCc3[nH]c4ccc(OCC)cc4c3C2)c1C [CBK282574]
viability at 28.5 h, 10 µM (% viability): 89.7%

O=S(=O)(c1ccc(N2CCNCC2)cc1)n1ccc2ccc(Br)cc21 [CBK034034C]
viability at 28.5 h, 10 µM (% viability): 70.6%

CCOC(=O)CNS(=O)(=O)Cc1ccccc1[N+](=O)[O-] [CBK034439]
viability at 28.5 h, 10 µM (% viability): 95.3%

Cc1ccc(NC2=NC3(N=C(N)N2)C(=O)N(C)c2ccccc23)cc1 (centres unmarked) [CBK270157]
viability at 28.5 h, 10 µM (% viability): 84.9%

CCN(CC)Cc1c(O)ccc2occ(C(=O)c3cc(OC)ccc3OC)c12 [CBK261949]
viability at 28.5 h, 10 µM (% viability): 97%

COc1ccc(C)cc1S(=O)(=O)n1ccc2c(CNC3CCN(C)CC3)cccc21 [CBK113308T]
viability at 28.5 h, 10 µM (% viability): 90.6%

COc1ccc(OCCNC(=O)c2cc(-c3cccnc3)cnc2N2CCOCC2)cc1 [CBK076341]
viability at 28.5 h, 10 µM (% viability): 96.2%

Cc1ccc2[nH]c(C3CCCCN3C(=O)c3cscn3)nc2c1 (centres unmarked) [CBK283999]
viability at 28.5 h, 10 µM (% viability): 96.6%

COc1ccc(OC(=O)COc2nc3c(C)cc(C)nc3[nH]2)cc1 [CBK269290]
viability at 28.5 h, 10 µM (% viability): 106%

Cn1c(=O)c2[nH]c(NCCc3ccc(Cl)cc3)nc2n(C)c1=O [CBK269794]
viability at 28.5 h, 10 µM (% viability): 92%

Cc1cc(NC(=O)CC(C)(C)C)nc2c1c(=O)oc1ccccc12 [CBK287444]
viability at 28.5 h, 10 µM (% viability): 101%

O=C(CSc1nnc(-c2ccccc2O)n1Cc1ccccc1)NC12CC3CC(CC(C3)C1)C2 [CBK266075]
viability at 28.5 h, 10 µM (% viability): 88.9%

CCOC(=O)N1CCN(Cc2nc3c(c(=O)n(C)c(=O)n3C)n2Cc2ccccc2C)CC1 [CBK269325]
viability at 28.5 h, 10 µM (% viability): 91.8%

CCn1cc(C2CN(S(=O)(=O)Cc3ccccc3)CCO2)cn1 (centres unmarked) [CBK304129]
viability at 28.5 h, 10 µM (% viability): 106%

CCSc1nnc2c3c(sc2c1N)CC(C)(C)OC3 [CBK020374]
viability at 28.5 h, 10 µM (% viability): 95.4%

CCCC(=O)Nc1ccc(C(=O)O)cc1NC(=O)CCC [CBK286939]
viability at 28.5 h, 10 µM (% viability): 92.3%

C1C/C(=N/N=C2\CCCc3nonc32)c2nonc2C1 [CBK006721]
viability at 28.5 h, 10 µM (% viability): 93.9%

O=C1CCC(=O)N1CCOc1nccnc1OC1CCN(Cc2ccccc2F)CC1 [CBK084337]
viability at 28.5 h, 10 µM (% viability): 96.4%

Cc1ccccc1S(=O)(=O)N(c1ccc(C(C)(C)C)cc1)C1CCNCC1 [CBK165074T]
viability at 28.5 h, 10 µM (% viability): 97.8%

COc1ccccc1CN(C(=O)Nc1ccc(S(C)(=O)=O)cc1)C1CC1 [CBK305787]
viability at 28.5 h, 10 µM (% viability): 90.9%

O=C(O)[C@@H]1CCCN1c1nc(O)cc(C(F)(F)F)n1 [CBK002865]
viability at 28.5 h, 10 µM (% viability): 81.3%

Cn1c(SCC(=O)Nc2cc(C(C)(C)C)no2)nnc1-c1ccc(C(C)(C)C)cc1 [CBK297133]
viability at 28.5 h, 10 µM (% viability): 89.6%

CCn1cc(CN(CC(C)C)C(=O)c2c(C)nc3ccccn23)cn1 [CBK306862]
viability at 28.5 h, 10 µM (% viability): 97.8%

CN1CCN(C(=O)C2CCN(CCCc3ccccc3)CC2)CC1 [CBK264326G]
viability at 28.5 h, 10 µM (% viability): 96%

Cc1nn(C)c(C)c1CCn1cncc1-c1ccc2c(c1)CC(C)N2C (centres unmarked) [CBK281788]
viability at 28.5 h, 10 µM (% viability): 76%

CNC(=O)Oc1cccc2cccnc12 [CBK015609]
viability at 28.5 h, 10 µM: 88.5%

CCCCCNC(=O)NCCC1=CCCCC1 [CBK043796]
viability at 28.5 h, 10 µM (% viability): 96.9%

CN(C)S(=O)(=O)N(CC(=O)N1CCN(Cc2ccccc2)CC1)c1ccccc1 [CBK268423]
viability at 28.5 h, 10 µM (% viability): 112%

Cc1nccn1-c1ccc(NC(=O)C2CC(=O)N(C3CCCC3)C2)cc1F (centres unmarked) [CBK298286]
viability at 28.5 h, 10 µM (% viability): 83.1%

COc1nccnc1OC1CCN(Cc2ccc(C(F)(F)F)cc2)CC1 [CBK084243]
viability at 28.5 h, 10 µM (% viability): 79.3%

Clc1cncc(N2CCNCC2)c1 [CBK022556F]
viability at 28.5 h, 10 µM [1]: 117%

O=C(NCCn1cccn1)N1CCC(Cc2ccc(F)cc2)CC1 [CBK304381]
viability at 28.5 h, 10 µM (% viability): 91.7%

CC(C)Sc1nnc(N2C(N)=C(C#N)C(c3cccs3)C3=C2CCCC3=O)s1 (centres unmarked) [CBK293989]
viability at 28.5 h, 10 µM (% viability): 82.8%

O=C(O)CCCC(=O)Nc1ccc(O)cc1 [CBK263567]
viability at 28.5 h, 10 µM (% viability): 90.9%

CCC(CC)C(=O)N1CCN(Cc2ccccc2)CCC1=O [CBK284830]
viability at 28.5 h, 10 µM (% viability): 87.9%

COc1ccc(C(=O)N2CCC3(CCCN(C(=O)CCSC)C3)C2)cc1OC (centres unmarked) [CBK131661]
viability at 28.5 h, 10 µM (% viability): 111%

COCCNc1nc2c(c(N3CCCC(CO)C3)n1)CCNCC2 (centres unmarked) [CBK307242]
viability at 28.5 h, 10 µM (% viability): 111%
